The source of these data is patent publication US8669249B2, “Poly (ADP-ribose) polymerase (PARP) inhibitors” (Takeda Pharmaceutical Company Limited, priority 2009, dated 2014).

For one assay, the target named is T1, PARP (Homo sapiens, UniProt P09874).
T1 construct: purchased Trevigen 4684-096-K HT (kit); 4684-096-01 (PARP enzyme)
Briefly: PARP ELISA (ELISA-based colorimetric PARP/Apoptosis Assay kit, Trevigen). As to conditions: pIC50=-log10 IC50, IC50 in mol/L; inhibition of PARP catalytic activity. The class given is biochemical. The method in brief: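 Quenched after 10 min catalysis by aspiration and four PBS/0.1% Triton X-100 washes. Poly(ADP-ribose) detected with mouse anti-PAR monoclonal antibody, goat anti-mouse IgG-HRP and HRP substrate; colorimetric signal proportional to PARP catalytic activity.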
A general note: In an ELISA, binding on a coated surface is turned into a signal by an enzyme label.

The subject of a further assay is Jurkat cell line. Briefly: PARP cellular chemopotentiation assay (MTS, with/without TMZ). The class given is cell-based. As to conditions: Chemopotentiation factor: ratio of EC50 values of Jurkat cells co-treated without and with 100 μM TMZ; 96 hours. Here is the method: Potentiation Factor (PF50) Determination from PARP Cellular Chemopotentiation Assay
Jurkat cell line was maintained according to the supplier (American Type Culture Collection (Rockville, Md.)). Cells were seeded in 96-well tissue culture microplates at 10,000 cells per well and cultured for 24 hours prior to addition of compounds, TMZ (Temozolomide) or DMSO (dimethylsulfoxide) vehicle. After 96 hours of treatment, the conversion of MTS ([3-(4,5-dimethylthiazol-2-yl)-5-(3-carboxymethoxyphenyl)-2-(4-sulfophenyl)-2H-tetrazolium, inner salt], Promega, Madison, Wis.) by metabolically active cells was determined through measuring the OD490 nm with a Spectramax microplate reader (Molecular Devices, San Diego, Calif.). To generate concentration-response curves, cells were treated in duplicate with a range of serial compound dilutions (final DMSO concentration was 0.5%) in the absence or presence of 100 μM TMZ chemoreagent. The percentage of viable cells per well was calculated by correction for background and normalizing against DMSO-treated cells. EC50 values for inhibition of cell viability were calculated using XLfit4 MicroSoft Excel curve-fitting software. Chemopotentiation factor PF50 was calculated as the ratio of EC50 values of cells co-treated without and with TMZ, respectively.

pIC50: −log10 of the molar value. Bounds are passed on as bounds.

T1 sequence (P09874 whole entry): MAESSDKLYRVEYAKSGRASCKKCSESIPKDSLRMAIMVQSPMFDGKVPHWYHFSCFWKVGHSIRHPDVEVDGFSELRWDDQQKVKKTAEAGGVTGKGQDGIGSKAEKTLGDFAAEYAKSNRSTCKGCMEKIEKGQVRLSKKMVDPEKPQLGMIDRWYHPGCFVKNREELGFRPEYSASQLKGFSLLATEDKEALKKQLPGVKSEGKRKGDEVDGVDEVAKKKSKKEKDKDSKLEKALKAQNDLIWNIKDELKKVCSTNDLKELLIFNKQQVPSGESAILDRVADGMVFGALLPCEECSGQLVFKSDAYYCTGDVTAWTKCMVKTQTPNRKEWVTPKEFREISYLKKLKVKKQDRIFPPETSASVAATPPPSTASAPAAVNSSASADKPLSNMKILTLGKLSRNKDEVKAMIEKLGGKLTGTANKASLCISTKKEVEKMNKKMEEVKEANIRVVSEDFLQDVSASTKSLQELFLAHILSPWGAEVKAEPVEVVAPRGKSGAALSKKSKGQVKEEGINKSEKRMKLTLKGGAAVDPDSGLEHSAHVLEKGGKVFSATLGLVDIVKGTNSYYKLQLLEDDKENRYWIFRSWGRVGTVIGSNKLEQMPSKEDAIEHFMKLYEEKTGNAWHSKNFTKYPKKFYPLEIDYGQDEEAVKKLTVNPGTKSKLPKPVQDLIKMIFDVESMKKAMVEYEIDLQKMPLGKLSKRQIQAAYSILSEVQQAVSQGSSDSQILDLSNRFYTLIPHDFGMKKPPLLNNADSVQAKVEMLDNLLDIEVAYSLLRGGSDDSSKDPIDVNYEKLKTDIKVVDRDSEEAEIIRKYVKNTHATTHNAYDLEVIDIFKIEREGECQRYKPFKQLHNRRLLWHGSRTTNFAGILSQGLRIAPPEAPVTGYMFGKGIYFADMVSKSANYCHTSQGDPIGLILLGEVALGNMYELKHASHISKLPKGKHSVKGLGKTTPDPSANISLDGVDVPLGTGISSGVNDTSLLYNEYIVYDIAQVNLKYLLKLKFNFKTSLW

Usually pIC50 stands for the IC50 on a negative log10 scale, so that one unit is a factor of ten. `CC1Oc2ccc(Cn3cc4ccccc4n3)cc2NC1=O` (centres unmarked) [Compound 344, 6-((2H-Indazol-2-yl)methyl)-2-methyl-2H-benzo[b][1,4]oxazin-3(4H)-one] showed a negative logarithm of the IC50 (pIC50) at PARP below 6.70. Further, the PF50 in the assay on Jurkat cell line stood at 1.3.

`CNC(=O)c1ccc(N2CCN(Cc3cc(Cl)c4c(c3)NC(=O)C(C)O4)CC2)cc1` (centres unmarked) [Compound 308, 4-(4-((8-Chloro-2-methyl-3-oxo-3,4-dihydro-2H-benzo[b][1,4]oxazin-6-yl)methyl)piperazin-1-yl)-N-methylbenzamide] showed a pIC50 at PARP of 7.70. In the assay on Jurkat cell line, the PF50 was found to be 6.3.

As for `CCNC(=O)c1ccc(N2CCN(Cc3cc4c(c(OC)c3)OC(C)C(=O)N4)CC2)c(Cl)c1` (centres unmarked) [Compound 361, 3-Chloro-N-ethyl-4-(4-((8-methoxy-2-methyl-3-oxo-3,4-dihydro-2H-benzo[b][1,4]oxazin-6-yl)methyl)piperazin-1-yl)benzamide], the pIC50 against PARP was 7.60. The PF50 in the assay on Jurkat cell line is reported as above 3500.

In turn, `CNC(=O)c1ccc(N2CCN(Cc3cc4c(c(OC)c3)OC(C)C(=O)N4)CC2)c(F)c1` (centres unmarked) [Compound 365, 3-Fluoro-4-(4-((8-methoxy-2-methyl-3-oxo-3,4-dihydro-2H-benzo[b][1,4]oxazin-6-yl)methyl)piperazin-1-yl)-N-methylbenzamide] had a negative-log IC50 (pIC50) on PARP of 7.50. Moreover, the PF50 with Jurkat cell line is on record as 1.3.

As to `CCNC(=O)c1ccc(N2CCN(Cc3cc4c(c(OCC)c3)OC(C)C(=O)N4)CC2)c(Cl)c1` (centres unmarked) [Compound 399, 3-Chloro-4-(4-((8-ethoxy-2-methyl-3-oxo-3,4-dihydro-2H-benzo[b][1,4]oxazin-6-yl)methyl)piperazin-1-yl)-N-ethylbenzamide], on PARP, the pIC50 was 7.20. Besides, the PF50 in the assay with Jurkat cell line is reported as above 4.0.

Consider `CCNC(=O)c1ccc(N2CCN(Cc3ccc4c(c3)NC(=O)CO4)CC2)c(Cl)c1` [Compound 367, 3-Chloro-N-ethyl-4-(4-((3-oxo-3,4-dihydro-2H-benzo[b][1,4]oxazin-6-yl)methyl)piperazin-1-yl)benzamide], for which the pIC50 against PARP is below 6.70. Besides, the PF50 with Jurkat cell line is 2.5.

Turning to `CC1Oc2cc(F)c(CN3CC=C(c4ccc(Cl)cc4)CC3)cc2NC1=O` (centres unmarked) [Compound 331, 6-((4-(4-Chlorophenyl)-5,6-dihydropyridin-1(2H)-yl)methyl)-7-fluoro-2-methyl-2H-benzo[b][1,4]oxazin-3(4H)-one], at PARP, the pIC50 is below 6.70. In addition, in the assay with Jurkat cell line, the PF50 is 1.3.

For `CNC(=O)c1ccc(N2CCC(Cc3ccc4c(c3)NC(=O)C(C)O4)CC2)cc1` (centres unmarked) [Compound 390, N-Methyl-4-(4-((2-methyl-3-oxo-3,4-dihydro-2H-benzo[b][1,4]oxazin-6-yl)methyl)piperidin-1-yl)benzamide], at PARP, the pIC50 is below 6.70. The PF50 with Jurkat cell line is listed as 1.0.

Take `CC1Oc2c(Cl)cc(CN3CCN(c4ccc(Cl)cc4)CC3)cc2NC1=O` (centres unmarked) [Compound 167, 8-Chloro-6-((4-(4-chlorophenyl)piperazin-1-yl)methyl)-2-methyl-2H-benzo[b][1,4]oxazin-3(4H)-one]: the pIC50 against PARP was 7.00 to 7.40. Further, the PF50 entry with Jurkat cell line is on record as “≦0.9”.

`CCNC(=O)c1ccc(N2CCN(Cc3cc4c(c(OC)c3)OCC(=O)N4)CC2)c(Cl)c1` [Compound 370, 3-Chloro-N-ethyl-4-(4-((8-methoxy-3-oxo-3,4-dihydro-2H-benzo[b][1,4]oxazin-6-yl)methyl)piperazin-1-yl)benzamide] had a pIC50 against PARP of 7.10. For the same molecule, the PF50 in the assay on Jurkat cell line is recorded as 5.0.

For the molecule `COc1cc(CN2CCN(c3ccc(C(=O)NC4CC4)cc3C)CC2)cc2c1OCC(=O)N2` [Compound 375, N-cyclopropyl-4-(4-((8-methoxy-3-oxo-3,4-dihydro-2H-benzo[b][1,4]oxazin-6-yl)methyl)piperazin-1-yl)-3-methylbenzamide], the pIC50 against PARP was 7.80. The PF50 in the assay with Jurkat cell line is on record as above 2.0.

Turning to `CCOc1cc(CN2CCN(c3ccc(C(=O)NC)cc3C)CC2)cc2c1OC(C)C(=O)N2` (centres unmarked) [Compound 400, 4-(4-((8-Ethoxy-2-methyl-3-oxo-3,4-dihydro-2H-benzo[b][1,4]oxazin-6-yl)methyl)piperazin-1-yl)-N,3-dimethylbenzamide], at PARP, the pIC50 is 7.50. The PF50 in the assay on Jurkat cell line stood at 1211.

At PARP, `CCNC(=O)c1ccc(N2CCN(Cc3cc(O)c4c(c3)NC(=O)C(C)O4)CC2)cc1` (centres unmarked) [Compound 359, N-Ethyl-4-(4-((8-hydroxy-2-methyl-3-oxo-3,4-dihydro-2H-benzo[b][1,4]oxazin-6-yl)methyl)piperazin-1-yl)benzamide] had a pIC50 of 7.80. In addition, the PF50 with Jurkat cell line is above 6.0.

Regarding `CCNC(=O)c1ccc(N2CCN(Cc3cc(Cl)c4c(c3)NC(=O)C(C)O4)CC2)cc1` (centres unmarked) [Compound 309, 4-(4-((8-Chloro-2-methyl-3-oxo-3,4-dihydro-2H-benzo[b][1,4]oxazin-6-yl)methyl)piperazin-1-yl)-N-ethylbenzamide], the pIC50 against PARP was 8.30. In the assay on Jurkat cell line, the PF50 stood at 5.2.

In turn, `CCNC(=O)c1ccc(N2CCN(Cc3cc4c(c(C5CC5)c3)OC(C)C(=O)N4)CC2)cc1` (centres unmarked) [Compound 346, 4-(4-((8-Cyclopropyl-2-methyl-3-oxo-3,4-dihydro-2H-benzo[b][1,4]oxazin-6-yl)methyl)piperazin-1-yl)-N-ethylbenzamide] showed a pIC50 against PARP of 7.00. In the assay on Jurkat cell line, the PF50 stood at 8.6.

Molecule `CNC(=O)c1ccc(N2CCN(Cc3cc4c(c(OC(F)F)c3)OC(C)C(=O)N4)CC2)c(C)c1` (centres unmarked) [Compound 406, 4-(4-((8-(Difluoromethoxy)-2-methyl-3-oxo-3,4-dihydro-2H-benzo[b][1,4]oxazin-6-yl)methyl)piperazin-1-yl)-N,3-dimethylbenzamide] had a pIC50 at PARP of 7.20. Moreover, in the assay with Jurkat cell line, the PF50 is reported as 13.

Consider `CCNC(=O)c1ccc(N2CCN(Cc3cc4c(cc3F)OC(C)C(=O)N4)CC2)cc1` (centres unmarked) [Compound 336, N-Ethyl-4-(4-((7-fluoro-2-methyl-3-oxo-3,4-dihydro-2H-benzo[b][1,4]oxazin-6-yl)methyl)piperazin-1-yl)benzamide], for which the pIC50 against PARP was 7.00. Further, in the assay with Jurkat cell line, the PF50 amounted to 2.1.

The molecule `CCOC(=O)c1ccc(N2CCN(Cc3cc(Cl)c4c(c3)NC(=O)C(C)O4)CC2)cc1` (centres unmarked) [Compound 306, Ethyl 4-(4-((8-chloro-2-methyl-3-oxo-3,4-dihydro-2H-benzo[b][1,4]oxazin-6-yl)methyl)piperazin-1-yl)benzoate] gave a pIC50 at PARP of 7.10. For the same molecule, the PF50 with Jurkat cell line is 1.3.

As to `CCNC(=O)c1ccc(N2CCN(Cc3ccc4c(c3)NC(=O)[C@@H](C)O4)CC2)cc1` [Compound 250, (R)-N-Ethyl-4-(4-((2-methyl-3-oxo-3,4-dihydro-2H-benzo[b][1,4]oxazin-6-yl)methyl)piperazin-1-yl)benzamide], at PARP, the pIC50 was at least 7.50. Further, the PF50 in the assay on Jurkat cell line is listed as 2.0-9.9.

On to `CC1Oc2ccc(CN3CCN(c4ccc(C(=O)N5CCCC5)cc4)CC3)cc2NC1=O` (centres unmarked) [Compound 377, 2-Methyl-6-((4-(4-(pyrrolidine-1-carbonyl)phenyl)piperazin-1-yl)methyl)-2H-benzo[b][1,4]oxazin-3(4H)-one], for which the negative logarithm of the IC50 (pIC50) against PARP was below 6.70. Further, the PF50 in the assay on Jurkat cell line is given as 1.0.

As for `CCNC(=O)c1ccc(N2CCN(Cc3cc(C)c4c(c3)NC(=O)C(C)O4)CC2)c(Cl)c1` (centres unmarked) [Compound 382, 3-Chloro-4-(4-((2,8-dimethyl-3-oxo-3,4-dihydro-2H-benzo[b][1,4]oxazin-6-yl)methyl)piperazin-1-yl)-N-ethylbenzamide], the pIC50 against PARP is 7.10. For the same molecule, in the assay with Jurkat cell line, the PF50 is 3.4.

Regarding `Cc1cc(CN2CCN(c3ccc(C(=O)NC4CC4)cc3F)CC2)cc2c1OC(C)C(=O)N2` (centres unmarked) [Compound 387, N-Cyclopropyl-4-(4-((2,8-dimethyl-3-oxo-3,4-dihydro-2H-benzo[b][1,4]oxazin-6-yl)methyl)piperazin-1-yl)-3-fluorobenzamide], the pIC50 on PARP is 7.30. For the same molecule, the PF50 in the assay with Jurkat cell line is on record as above 5.0.

For `CCNC(=O)c1ccc(N2CCN(Cc3cc4c(c(OC)c3)OC(C)C(=O)N4)CC2)c(F)c1` (centres unmarked) [Compound 360, N-Ethyl-3-fluoro-4-(4-((8-methoxy-2-methyl-3-oxo-3,4-dihydro-2H-benzo[b][1,4]oxazin-6-yl)methyl)piperazin-1-yl)benzamide], at PARP, the pIC50 was 7.40. Also, the PF50 with Jurkat cell line was 3.1.

As for `CCNC(=O)c1ccc(N2CCN(Cc3cc(C)c4c(c3)NC(=O)C(C)O4)CC2)cc1` (centres unmarked) [Compound 258, 4-(4-((2,8-Dimethyl-3-oxo-3,4-dihydro-2H-benzo[b][1,4]oxazin-6-yl)methyl)piperazin-1-yl)-N-ethylbenzamide], the pIC50 against PARP was at least 7.50. Further, the PF50 entry in the assay with Jurkat cell line is listed as “≧10.0”.

For the molecule `CNC(=O)c1ccc(N2CCN(Cc3cc(C)c4c(c3)NC(=O)C(C)O4)CC2)c(C)c1` (centres unmarked) [Compound 384, 4-(4-((2,8-Dimethyl-3-oxo-3,4-dihydro-2H-benzo[b][1,4]oxazin-6-yl)methyl)piperazin-1-yl)-N,3-dimethylbenzamide], the pIC50 on PARP was 7.40. Moreover, the PF50 in the assay with Jurkat cell line stood at 8.4.
